{"source": "paper PMC9078972", "about": "(RSC Advances, 2018)", "key": {"in vitro [1]": {"assay": "in vitro", "conditions": "dog; for Papp B→A / efflux ratio: MDCK-MDR1, pH 7.4; for Papp A→B: MDCK-MDR1, pH 7.4, Mean Papp A to B, A to B"}, "in vitro [2]": {"assay": "in vitro", "conditions": "mouse, microsomes, pH 7.5"}, "in vitro [3]": {"assay": "in vitro", "conditions": "rat, microsomes, pH 7.5"}, "in vitro [4]": {"assay": "in vitro", "conditions": "human, microsomes, pH 7.5"}, "[5]": {"conditions": "ref previous study; cited from earlier work"}, "physchem": {"assay": "physchem", "conditions": "37 °C, water, thermodynamic from solid"}, "[6]": {"system": "Mycobacterium tuberculosis H37Ra", "assay": "microbe, parasite or virus in culture", "format": "cell-based"}, "[7]": {"assay": "Cytotoxicity against VERO cells", "format": "cell-based", "conditions": "African green monkey, VERO cells (kidney epithelial cells)"}, "CYP2C19": {"target": "CYP2C19 (Homo sapiens, UniProt P33261)", "sequence (P33261 whole entry)": "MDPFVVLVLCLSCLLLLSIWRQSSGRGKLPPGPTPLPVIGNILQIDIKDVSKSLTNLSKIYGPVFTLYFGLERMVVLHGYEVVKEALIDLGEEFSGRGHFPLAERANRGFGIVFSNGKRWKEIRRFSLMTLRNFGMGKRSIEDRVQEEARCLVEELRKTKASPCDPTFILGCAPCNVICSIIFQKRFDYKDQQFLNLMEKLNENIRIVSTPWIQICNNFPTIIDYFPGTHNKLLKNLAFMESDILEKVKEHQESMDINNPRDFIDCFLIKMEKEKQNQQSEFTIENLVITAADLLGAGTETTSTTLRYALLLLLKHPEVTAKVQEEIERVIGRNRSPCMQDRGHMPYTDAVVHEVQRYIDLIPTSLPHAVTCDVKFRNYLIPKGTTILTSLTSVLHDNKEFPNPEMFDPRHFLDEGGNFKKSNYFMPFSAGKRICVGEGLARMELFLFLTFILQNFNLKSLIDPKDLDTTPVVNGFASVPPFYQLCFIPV", "assay": "biochemical", "conditions": "CYP inhibitory IC50, 2C19"}, "CYP3A4": {"target": "CYP3A4 (Homo sapiens, UniProt P08684)", "sequence (P08684 whole entry)": "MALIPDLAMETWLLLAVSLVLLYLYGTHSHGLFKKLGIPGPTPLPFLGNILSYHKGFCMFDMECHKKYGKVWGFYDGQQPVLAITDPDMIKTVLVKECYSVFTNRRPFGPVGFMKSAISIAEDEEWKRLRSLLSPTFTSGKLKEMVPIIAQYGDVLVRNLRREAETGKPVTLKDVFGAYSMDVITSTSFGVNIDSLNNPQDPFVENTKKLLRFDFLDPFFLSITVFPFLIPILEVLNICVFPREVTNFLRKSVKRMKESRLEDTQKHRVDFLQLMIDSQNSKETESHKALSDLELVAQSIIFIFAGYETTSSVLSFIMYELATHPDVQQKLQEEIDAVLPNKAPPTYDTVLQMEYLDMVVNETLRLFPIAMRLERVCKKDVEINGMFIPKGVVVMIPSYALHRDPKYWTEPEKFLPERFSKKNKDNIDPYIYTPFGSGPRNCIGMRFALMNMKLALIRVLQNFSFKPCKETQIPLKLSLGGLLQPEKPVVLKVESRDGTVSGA", "assay": "biochemical"}, "[8]": {"assay": "Pharmacokinetic study in ICR mice", "format": "in vivo", "conditions": "mouse"}}}
{"smiles": "C[C@H]1COC2(CCN(c3nc(=O)c4cc(C(F)(F)F)cc([N+](=O)[O-])c4s3)CC2)O1", "note": "[BTZ043]", "values": [{"measurement": "Papp B→A", "setting": "in vitro [1]", "value": 7.17, "unit": "×10⁻⁶ cm/s"}, {"measurement": "efflux ratio", "setting": "in vitro [1]", "value": 0.79}, {"measurement": "Papp A→B", "setting": "in vitro [1]", "value": 9.02, "unit": "×10⁻⁶ cm/s"}, {"measurement": "half-life", "setting": "in vitro [2]", "value": 16.7, "unit": "min"}, {"measurement": "half-life", "setting": "in vitro [3]", "value": 22, "unit": "min"}, {"measurement": "half-life", "setting": "in vitro [4]", "value": 46.1, "unit": "min"}, {"measurement": "bioavailability F", "setting": "[5]", "value": 29.5, "unit": "%"}, {"measurement": "solubility", "setting": "physchem", "value": "< 1", "unit": "µg/mL"}, {"measurement": "MIC", "setting": "[6]", "value": 0.004, "unit": "µM"}, {"measurement": "CC50", "setting": "[7]", "value": "> 10", "unit": "µM"}]}
{"smiles": "O=C1CN(c2nc(=O)c3cc(C(F)(F)F)cc([N+](=O)[O-])c3s2)CCN1C1CCCC1", "note": "[Compound 1a, 2-(4-Cyclopentyl-3-oxopiperazin-1-yl)-8-nitro-6(trifluoromethyl)-4H-benzo[e]-[1,3]thiazin-4-one]", "values": [{"measurement": "Papp B→A", "setting": "in vitro [1]", "value": 7.23, "unit": "×10⁻⁶ cm/s"}, {"measurement": "efflux ratio", "setting": "in vitro [1]", "value": 0.68}, {"measurement": "Papp A→B", "setting": "in vitro [1]", "value": 10.6, "unit": "×10⁻⁶ cm/s"}, {"measurement": "half-life", "setting": "in vitro [2]", "value": 9.4, "unit": "min"}, {"measurement": "half-life", "setting": "in vitro [3]", "value": 15.6, "unit": "min"}, {"measurement": "half-life", "setting": "in vitro [4]", "value": 72, "unit": "min"}, {"measurement": "IC50", "setting": "CYP2C19", "value": 8.6, "unit": "µM"}, {"measurement": "IC50", "setting": "CYP3A4", "value": 5.33, "unit": "µM"}, {"measurement": "solubility", "setting": "physchem", "value": 7.37, "unit": "µg/mL"}, {"measurement": "MIC", "setting": "[6]", "value": 0.013, "unit": "µM"}, {"measurement": "CC50", "setting": "[7]", "value": "> 10", "unit": "µM"}]}
{"smiles": "O=C1CN(c2nc(=O)c3cc(C(F)(F)F)cc([N+](=O)[O-])c3s2)CCN1C1CCCCC1", "note": "[Compound 1b, 2-(4-Cyclohexyl-3-oxopiperazin-1-yl)-8-nitro-6-(trifluoromethyl)-4H-benzo[e]-[1,3]thiazin-4-one]", "values": [{"measurement": "solubility", "setting": "physchem", "value": 1.63, "unit": "µg/mL"}, {"measurement": "MIC", "setting": "[6]", "value": 0.017, "unit": "µM"}, {"measurement": "CC50", "setting": "[7]", "value": "> 10", "unit": "µM"}]}
{"smiles": "O=C1CN(c2nc(=O)c3cc(C(F)(F)F)cc([N+](=O)[O-])c3s2)CCN1CC1CCCCC1", "note": "[Compound 1c, 2-(4-(Cyclohexylmethyl)-3-oxopiperazin-1-yl)-8-nitro-6-(trifluoromethyl)-4H-benzo-[e][1,3]thiazin-4-one]", "values": [{"measurement": "solubility", "setting": "physchem", "value": 3.57, "unit": "µg/mL"}, {"measurement": "MIC", "setting": "[6]", "value": 0.017, "unit": "µM"}, {"measurement": "CC50", "setting": "[7]", "value": "> 10", "unit": "µM"}]}
{"smiles": "COc1ccc(C(=O)OC2CCN(c3nc(=O)c4cc(C(F)(F)F)cc([N+](=O)[O-])c4s3)CC2)cc1", "note": "[Compound 2l, 1-(8-Nitro-4-oxo-6-(trifluoromethyl)-4H-benzo[e][1,3]thiazin-2-yl)piperidin-4-yl 4-methoxybenzoat]", "values": [{"measurement": "MIC", "setting": "[6]", "value": 0.008, "unit": "µM"}, {"measurement": "CC50", "setting": "[7]", "value": "> 10", "unit": "µM"}]}
{"smiles": "COc1ccccc1C(=O)OC1CCN(c2nc(=O)c3cc(C(F)(F)F)cc([N+](=O)[O-])c3s2)CC1", "note": "[Compound 2m, 1-(8-Nitro-4-oxo-6-(trifluoromethyl)-4H-benzo[e][1,3]thiazin-2-yl)piperidin-4-yl 2-methoxybenzoate]", "values": [{"measurement": "MIC", "setting": "[6]", "value": 0.063, "unit": "µM"}, {"measurement": "CC50", "setting": "[7]", "value": "> 10", "unit": "µM"}]}
{"smiles": "COC(=O)c1ccc(C(=O)OC2CCN(c3nc(=O)c4cc(C(F)(F)F)cc([N+](=O)[O-])c4s3)CC2)cc1", "note": "[Compound 2n, Methyl (1-(8-nitro-4-oxo-6-(trifluoromethyl)-4H-benzo[e][1,3]thiazin-2-yl)-piperidin-4-yl) terephthalate]", "values": [{"measurement": "MIC", "setting": "[6]", "value": 0.063, "unit": "µM"}, {"measurement": "CC50", "setting": "[7]", "value": "> 10", "unit": "µM"}]}
{"smiles": "CN(C)c1ccc(C(=O)OC2CCN(c3nc(=O)c4cc(C(F)(F)F)cc([N+](=O)[O-])c4s3)CC2)cc1", "note": "[Compound 2o, 1-(8-Nitro-4-oxo-6-(trifluoromethyl)-4H-benzo[e][1,3]thiazin-2-yl)piperidin-4-yl 4-(dimethylamino)benzoate]", "values": [{"measurement": "MIC", "setting": "[6]", "value": 0.031, "unit": "µM"}, {"measurement": "CC50", "setting": "[7]", "value": "> 10", "unit": "µM"}]}
{"smiles": "Cc1ccccc1OC1CCN(c2nc(=O)c3cc(C(F)(F)F)cc([N+](=O)[O-])c3s2)CC1", "note": "[Compound 3g, 8-Nitro-2-(4-(o-tolyloxy)piperidin-1-yl)-6-(trifluoromethyl)-4H-benzo[e][1,3]thiazin-4-one]", "values": [{"measurement": "MIC", "setting": "[6]", "value": 0.016, "unit": "µM"}, {"measurement": "CC50", "setting": "[7]", "value": "> 10", "unit": "µM"}]}
{"smiles": "O=c1nc(N2CCC(Oc3ccc(OC(F)(F)F)cc3)CC2)sc2c([N+](=O)[O-])cc(C(F)(F)F)cc12", "note": "[Compound 3h, 8-Nitro-2-(4-(4-(trifluoromethoxy)phenoxy)piperidin-1-yl)-6-(trifluoromethyl)-4H-benzo[e][1,3]thiazin-4-one]", "values": [{"measurement": "MIC", "setting": "[6]", "value": 0.008, "unit": "µM"}, {"measurement": "CC50", "setting": "[7]", "value": "> 10", "unit": "µM"}]}
{"smiles": "Cc1ccc(OC2CCN(c3nc(=O)c4cc(C(F)(F)F)cc([N+](=O)[O-])c4s3)CC2)c(F)c1", "note": "[Compound 3i, 2-(4-(2-Fluoro-4-methylphenoxy)piperidin-1-yl)-8-nitro-6-(tri-fluoromethyl)-4H-benzo[e][1,3]thiazin-4-one]", "values": [{"measurement": "solubility", "setting": "physchem", "value": 1, "unit": "µg/mL"}, {"measurement": "MIC", "setting": "[6]", "value": 0.016, "unit": "µM"}, {"measurement": "CC50", "setting": "[7]", "value": "> 10", "unit": "µM"}]}
{"smiles": "O=c1nc(N2CCC(Oc3ccccn3)CC2)sc2c([N+](=O)[O-])cc(C(F)(F)F)cc12", "note": "[Compound 3k, 8-Nitro-2-(4-(pyridin-2-yloxy)piperidin-1-yl)-6-(trifluoro-methyl)-4H-benzo[e][1,3]thiazin-4-one]", "values": [{"measurement": "MIC", "setting": "[6]", "value": 0.031, "unit": "µM"}, {"measurement": "CC50", "setting": "[7]", "value": "> 10", "unit": "µM"}]}
{"smiles": "O=c1nc(N2CCC(Oc3ccc(F)cn3)CC2)sc2c([N+](=O)[O-])cc(C(F)(F)F)cc12", "note": "[Compound 3l, 2-(4-((5-Fluoropyridin-2-yl)oxy)piperidin-1-yl)-8-nitro-6-(tri-fluoromethyl)-4H-benzo[e][1,3]thiazin-4-one]", "values": [{"measurement": "MIC", "setting": "[6]", "value": 0.031, "unit": "µM"}, {"measurement": "CC50", "setting": "[7]", "value": "> 10", "unit": "µM"}]}
{"smiles": "Cc1ccnc(OC2CCN(c3nc(=O)c4cc(C(F)(F)F)cc([N+](=O)[O-])c4s3)CC2)n1", "note": "[Compound 3m, 2-(4-((4-Methylpyrimidin-2-yl)oxy)piperidin-1-yl)-8-nitro-6-(trifluoromethyl)-4H-benzo[e][1,3]thiazin-4-one]", "values": [{"measurement": "solubility", "setting": "physchem", "value": 2.39, "unit": "µg/mL"}, {"measurement": "MIC", "setting": "[6]", "value": 0.031, "unit": "µM"}, {"measurement": "CC50", "setting": "[7]", "value": "> 10", "unit": "µM"}]}
{"smiles": "O=c1nc(N2CCN(CC3CCCCC3)CC2)sc2c([N+](=O)[O-])cc(C(F)(F)F)cc12", "note": "[PBTZ169]", "values": [{"measurement": "Papp B→A", "setting": "in vitro [1]", "value": 0.74, "unit": "×10⁻⁶ cm/s"}, {"measurement": "Papp A→B", "setting": "in vitro [1]", "value": 0.74, "unit": "×10⁻⁶ cm/s"}, {"measurement": "half-life", "setting": "in vitro [2]", "value": 14.4, "unit": "min"}, {"measurement": "half-life", "setting": "in vitro [3]", "value": 14.7, "unit": "min"}, {"measurement": "half-life", "setting": "in vitro [4]", "value": 11.1, "unit": "min"}, {"measurement": "Cmax", "setting": "[8]; lung, iv, 10 mg/kg", "value": 4210, "unit": "ng/mL"}, {"measurement": "MRT inf", "setting": "[8]; lung, iv, 10 mg/kg", "value": 270, "unit": "min"}, {"measurement": "Tmax", "setting": "[8]; lung, iv, 10 mg/kg", "value": 4.8, "unit": "min"}, {"measurement": "half-life", "setting": "[8]; lung, iv, 10 mg/kg", "value": 190, "unit": "min"}, {"measurement": "AUC(0-inf)", "setting": "[8]; lung, po, 100 mg/kg", "value": 7840, "unit": "ng·h/mL"}, {"measurement": "Cmax", "setting": "[8]; lung, po, 100 mg/kg", "value": 811, "unit": "ng/mL"}, {"measurement": "MRT inf", "setting": "[8]; lung, po, 100 mg/kg", "value": 390, "unit": "min"}, {"measurement": "Tmax", "setting": "[8]; lung, po, 100 mg/kg", "value": 30, "unit": "min"}, {"measurement": "half-life", "setting": "[8]; lung, po, 100 mg/kg", "value": 254, "unit": "min"}, {"measurement": "AUC(0-inf)", "setting": "[8]; plasma, iv, 10 mg/kg", "value": 9070, "unit": "ng·h/mL"}, {"measurement": "MRT inf", "setting": "[8]; plasma, iv, 10 mg/kg", "value": 63, "unit": "min"}, {"measurement": "Tmax", "setting": "[8]; plasma, iv, 10 mg/kg", "value": 4.8, "unit": "min"}, {"measurement": "Vd", "setting": "[8]; plasma, iv, 10 mg/kg", "value": 1.15, "unit": "L/kg"}, {"measurement": "clearance", "setting": "[8]; plasma, iv, 10 mg/kg", "value": 18.3, "unit": "mL/min/kg"}, {"measurement": "half-life", "setting": "[8]; plasma, iv, 10 mg/kg", "value": 160, "unit": "min"}, {"measurement": "Cmax", "setting": "[8]; plasma, po, 100 mg/kg", "value": 3000, "unit": "ng/mL"}, {"measurement": "MRT inf", "setting": "[8]; plasma, po, 100 mg/kg", "value": 222, "unit": "min"}, {"measurement": "Tmax", "setting": "[8]; plasma, po, 100 mg/kg", "value": 120, "unit": "min"}, {"measurement": "bioavailability", "setting": "[8]; plasma, po, 100 mg/kg", "value": 20.8, "unit": "%"}, {"measurement": "half-life", "setting": "[8]; plasma, po, 100 mg/kg", "value": 125, "unit": "min"}]}
